Test results published in US4755524A, “Novel phenolic thioethers as inhibitors of 5-lipoxygenase” (G. D. Searle & Co., priority 1987, dated 1988).
Counter-ions that a name gives are not always drawn.

Key:
[1] = more potent than histamine; cited from earlier work
5-lipoxygenase = molecular target: T1, 5-lipoxygenase (Rattus norvegicus, UniProt P12527); assay: Inhibition of 5-lipoxygenase, in vitro; format: biochemical; conditions: 100,000×g supernatant of RBL-1 homogenate, 14C-arachidonic acid, 5-HETE measured
T1 construct: supernatant fraction of Rat Basophilic Leukemia Cell Homogenate (RBL-1) serves as a 5-lipoxygenase enzyme source; endogenous in cells; host or cells: RBL-1 (rat basophilic leukemia) cells, 100,000×g supernatant of homogenate
T1 sequence (P12527 1-673): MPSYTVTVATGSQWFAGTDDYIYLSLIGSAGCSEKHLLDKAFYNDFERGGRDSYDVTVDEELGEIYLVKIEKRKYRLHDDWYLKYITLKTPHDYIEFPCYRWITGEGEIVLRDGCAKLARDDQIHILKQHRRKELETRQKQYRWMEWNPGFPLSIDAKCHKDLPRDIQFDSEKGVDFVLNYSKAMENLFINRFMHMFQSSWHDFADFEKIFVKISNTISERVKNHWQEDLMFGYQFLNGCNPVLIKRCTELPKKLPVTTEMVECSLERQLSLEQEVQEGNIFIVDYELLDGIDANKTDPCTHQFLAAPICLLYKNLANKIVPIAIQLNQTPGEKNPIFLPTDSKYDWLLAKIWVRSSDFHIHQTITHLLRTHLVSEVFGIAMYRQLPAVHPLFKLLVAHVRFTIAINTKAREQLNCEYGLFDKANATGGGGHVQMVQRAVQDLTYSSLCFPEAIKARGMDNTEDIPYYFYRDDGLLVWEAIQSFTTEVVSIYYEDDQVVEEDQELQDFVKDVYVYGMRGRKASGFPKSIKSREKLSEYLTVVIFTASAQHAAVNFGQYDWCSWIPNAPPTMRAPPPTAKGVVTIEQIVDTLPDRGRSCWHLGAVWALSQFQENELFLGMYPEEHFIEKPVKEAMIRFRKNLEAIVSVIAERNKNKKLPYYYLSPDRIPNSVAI
Method: The compounds of the invention are evaluated with respect to 5-lipoxygenaseinhibition according to the following assay procedures.
(1) Inhibition of 5-lipoxygenase, in vitro: anti-inflammatory, anti-allergyactivities.
The 100,000×g supernatant fraction of Rat Basophilic Leukemia Cell Homogenate (RBL-1) serves as a 5-lipoxygenase enzyme source. The enzyme is incubated with [(1-^14 C)-arachidonic acid and Ca++ in the presence and absence of test compound. The product of 5-lipoxygenase, 5-hydroxyeicosatetraenoic acid (5-HETE), is separated by thin-layer chromatography and measured by radioactivity. A compound inhibiting 5-HETE synthesis by 30% or more is considered active at that concentration.

[2] = tested on: OA-induced bronchoconstriction in the Guinea Pig; assay: In vivo inhibition of ovalbumin-induced bronchoconstriction - Anti-allergy assay
Description: (2) In vivo inhibition of ovalbumin-induced bronchoconstriction-Anti-allergy assay.
Adult, male Hartley guinea pigs (300-350 g, fasted) actively sensitized to ovalbumin are utilized in this assay.
Ovalbumin (OA) causes bronchoconstriction when administered to actively-sensitized guinea pigs. The observed bronchoconstriction is comprised of at least two distinct components:
(a) a cyclooxygenase-dependent, rapidly occurring bronchoconstriction mediated by thromboxane A2 and possibly other mediators and
(b) a 5-lipoxygenase dependent slow developing component, dependent upon the de novo generation of LTC4 and LTD4.
All test animals are pretreated with aspirin and pyrilamine to block the occurrence of the rapidly occurring component (a). Compounds which block the generation of LTC4 and LTD4 (5-lipoxygenase inhibitors) or antagonize the activity of LTC4 /LTD4 (leukotriene inhibitors) modulate the severity of the remaining component of this well-characterized anaphylactic response.
Test compounds are administered at screening doses of 50 mg/kg, i.v., or 100 mg/kg, i.g. A compound is rated active in this test if it causes a significant reduction (i.e., p 0.05, student's t-test) in intratracheal insufflation pressure induced by an i.v. injection of ovalbumin (3 mg/ml, i.v.), aspirin (5 mg/kg, i.v.) and propanolol (6 mg/kg i.p.). Treated animals are statistically compared to concurrent vehicle treated controls. Compounds rated active in inhibiting the production of the LTC4 /LTD4 allergic mediators through inhibition of 5-lipoxygenase according to this test are believed to play a significant role in bronchopulmonary allergic conditions, e.g., asthma.

[3] = i.g. @ 3 hr., vehicle 2 (peanut oil)
[4] = i.g. @ 3 hr., vehicle 1 (20% DMSO in polyethylene glycol)

| Structure (SMILES) | IC50 (5-lipoxygenase) | Antagonism of OA-induced bronchoconstriction in the Guinea Pig (min. effective dose) [2, 3] | other results |
| --- | --- | --- | --- |
| CCCCC/C=C\C\C=C/C=C/C=C/[C@@H](SC[C@H](NC(=O)CC[C@H](N)C(=O)O)C(=O)NCC(=O)O)[C@@H](O)CCCC(=O)O [LTC4] | – | – | potency relative to histamine in causing long lasting bronchoconstricting effects [1]: at least 100 times |
| CCOC(=O)C[S+]([O-])CCSc1cc(C(C)(C)C)c(O)c(C(C)(C)C)c1 (centres unmarked) [Example 12, ethyl[[2-[[3,5-bis(1,1-dimethylethyl)-4-hydroxyphenyl]thio]ethyl]sulfinyl]acetate] | 330 nM | – | – |
| CCOC(=O)CS(=O)(=O)CCSc1cc(C(C)(C)C)c(O)c(C(C)(C)C)c1 [Example 17, ethyl[[2-[[3,5-bis(1,1-dimethylethyl)-4-hydroxyphenyl]thio]ethyl]sulfonyl]acetate] | 300 nM | – | – |
| CC(C)(C)c1cc(SCCSCC(=O)O)cc(C(C)(C)C)c1O [Example 3, [[2-[[3,5-bis(1,1-dimethylethyl)-4-hydroxyphenyl]thio]ethyl]thio]acetic acid, monosodium salt] | – | – | Antagonism of OA-induced bronchoconstriction in the Guinea Pig (min. effective dose) ([2]; i.g. @ 3 hr., vehicle 1 (20% DMSO in polyethylene glycol), monosodium salt): 100 mg/kg |
| CC(C)(C)c1cc(SCCSCCC(=O)O)cc(C(C)(C)C)c1O [Example 13, 3-[[2-[[3,5-bis(1,1-dimethylethyl)-4-hydroxyphenyl]thio]ethyl]thio]propanoic acid] | 1000 nM | – | Antagonism of OA-induced bronchoconstriction in the Guinea Pig (min. effective dose) ([2]; i.g. @ 5 hr., vehicle 2 (peanut oil)): 100 mg/kg |
| O=C(O)CSCCSc1ccc(O)cc1 [Example 37, [[2-[(4-hydroxyphenyl)thio]ethyl]thio]acetic acid, reference compound] | 55000 nM | 100 mg/kg | – |
| Cc1cc(SCCSCC(=O)O)ccc1O [Example 34, [[2-[(4-hydroxy-3-methylphenyl)thio]ethyl]thio]acetic acid, reference compound] | ~100000 nM | 100 mg/kg | – |
| COC(=O)CSCCSc1cc(C(C)(C)C)c(O)c(C(C)(C)C)c1 [Example 8, methyl[[2-[[3,5-bis(1,1-dimethylethyl)-4-hydroxyphenyl]thio]ethyl]thio]acetate] | – | – | Antagonism of OA-induced bronchoconstriction in the Guinea Pig (min. effective dose) [2, 4]: 100 mg/kg |

More lines, main results first:

| IC50 (5-lipoxygenase) | Structure (SMILES) | Antagonism of OA-induced bronchoconstriction in the Guinea Pig (min. effective dose) [2, 3] | other results |
| --- | --- | --- | --- |
| 310 nM | COC(=O)CSCC(O)CSc1cc(C(C)(C)C)c(O)c(C(C)(C)C)c1 (centres unmarked) [Example 42, methyl[[3-[[3,5-bis(1,1-dimethylethyl)-4-hydroxyphenyl]thio]-2-hydroxypropyl]thio]acetate] | – | Antagonism of OA-induced bronchoconstriction in the Guinea Pig (min. effective dose) ([2]; i.g. @ 2 hr., vehicle 1 (20% DMSO in polyethylene glycol)): 50 mg/kg |
| 240 nM | COC(=O)CSC(C)C(C)Sc1cc(C(C)(C)C)c(O)c(C(C)(C)C)c1 (centres unmarked) [Example 19, methyl[[2-[[3,5-bis(1,1-dimethylethyl)-4-hydroxyphenyl]thio]-1-methylpropyl]thio]acetate] | 32 mg/kg | – |
| 820 nM | CC(SCC(=O)O)C(C)Sc1cc(C(C)(C)C)c(O)c(C(C)(C)C)c1 (centres unmarked) [Example 20, [[2-[[3,5-bis(1,1-dimethylethyl)-4-hydroxyphenyl]thio]-1-methylpropyl]thio]acetic acid] | 32 mg/kg | – |
| 1400 nM | CC(C)(C)c1cc(SCCSCC(=O)O)cc(C(C)(C)C)c1O [Example 4, [[2-[[3,5-bis(1,1-dimethylethyl)-4-hydroxyphenyl]thio]ethyl]thio]acetic acid] | 100 mg/kg | – |
| 7300 nM | CC(C)(C)c1cc(SCCOCC(=O)O)cc(C(C)(C)C)c1O [Example 31, [2-[[3,5-bis(1,1-dimethylethyl)-4-hydroxyphenyl]thio]ethoxy]acetic acid] | – | – |
| 120 nM | COC(=O)CCCSCCSc1cc(C(C)(C)C)c(O)c(C(C)(C)C)c1 [Example 15, methyl 4-[[2-[[3,5-bis(1,1-dimethylethyl)-4-hydroxyphenyl]thio]ethyl]thio]butanoate] | – | – |
| 1800 nM | CC(C)(C)c1cc(SCCSCC(=O)O)cc(C(C)(C)C)c1O [Example 6, [[2-[[3,5-bis(1,1-dimethylethyl)-4-hydroxyphenyl]thio]ethyl]thio]acetic acid, 2,2',2"nitrilotris[ethanol] salt] | – | Antagonism of OA-induced bronchoconstriction in the Guinea Pig (min. effective dose) [2, 4]: 50 mg/kg |
